Test results: patent publication US6143719A, “Bradykinin analogs as selective thrombin inhibitors” (The Regents of the University of Michigan, priority 1996, dated 2000)
Read-outs that look alike come from different tables or passages of the source. Ends that are not written are not given here.

Assays:
[1] = tested on: human platelets; format: cell-based
Method: The cytoplasmic free Ca^2+ concentration ([Ca^2+ ]i) was measured using the fluorescent Ca^2 + indicator fura-2 (Molecular Probes, Inc., Eugene, Oreg.). Gel filtered platelets in Hepes-Tyrode's buffer were loaded with fura-2 by incubation at 37° C. with 1 μM fura-2/acetoxymethyl ester for 45 min according to the method of Rasmussen et al., J. Biol. Chem. 268, 14322 (1993). The labeled platelets were then re-gel filtered to remove any excess probe. Aliquots of the labeled platelet suspension were transferred into a quartz cuvette with a magnetic stirrer, which was then placed in a thermostatically controlled chamber at 37° C. in a fluorescence spectrophotometer (Dual Wave Length Shimazdu SP5000 Spectrofluorometer, Shimazdu USA, Pittsburgh, Pa.). Reagents were directly added to the cuvette. The excitation wave lengths varied between 340 and 380 nm. The fluorescence was measured by recording emitted light at 510 nm as reported by Fisher et al, Mol. Pharm. 35, 195 (1989). The minimum emission was determined on a 20 mM digitonin, 10 mM EGTA solubilized platelet sample; maximum emission was determined on the same sample with 10 mM Ca^2+ added. The intraplatelet free Ca^2+ concentration was calculated by the method of Grykiewicz et al., J. Biol. Chem. 260, 3440 (1985). The ratio of the fluorescence readings was calculated as R=340/380 nm and processed according to the equation [Ca^2+ ]i =KD ((R-Rmin)/Rmax -R))(Sf2 /Sb2) to determine the intraplatelet free Ca^2+ concentration. The KD for fura-2 was assumed to be 224 nM. Rmax and Rmin are the maximum and minimum fluorescence ratios measured at the end of the experiment, respectively; Sf2 and Sb2 are the fluorescence values at 380 nm in the absence and presence of saturating [Ca^2+ ], respectively.

[2] = tested on: platelets; format: cell-based, human; settings: for inhibition of aggregation / inhibition of secretion: peptide 1 mM
Method: Fresh whole blood was collected and mixed with 0.013 M sodium citrate and platelet-rich plasma was prepared according to the method of Meloni et al., J. Biol. Chem. 266, 6786, 1991. Washed platelets were prepared by gel filtration over Sepharose 2B columns in Hepes-Tyrode's buffer (0.137 M NaCl, 3 mM KCl, 0.4 mM Na H2 PO4, 12 mM NaHCO3, 1 mM MgCl2, 14.7 mM Hepes containing 20 mM glucose and 0.2% bovine serum albumin, pH 7.35). Platelets for aggregation and secretion studies were incubated according to the method of Schmaier et al., Blood 56, 1013, 1980 with 5-[^14 C]hydroxytryptamine for 30 min at 37° C. The washed platelets (2×10^8 /ml, final concentration radiolabeled with 5-[^14 C]hydroxytryptamine) were added to a cuvette of an aggregometer (Chronolog Corp., Havertown, Pa.), standardized using the protocol of Meloni et al., supra. After the addition of ZnCl2, final concentration 50 μM, purified HK (1 μM) or various concentrations of the peptides (0.1 to 3 mM) or buffer alone was added to the cuvette. Once the baseline stabilized, α-thrombin [0.125 U/ml (1 nM) final concentration] was then added to initiate platelet activation. Stirred platelets were allowed to incubate with o-thrombin and additions for 1 min. In other experiments, platelets were stimulated with TRAP (0.625 to 2.5 μM), ADP (1-5 μM)(Sigma), collagen (1.25 μg/ml) (Horm, Munich, Germany), or U-46619 (1 μM)(Calbiochem Behring, San Diego, Calif.). Additional experiments were performed with washed platelets stimulated with γ-thrombin (1 nM) in the presence of human fibrinogen (100 mg/dl). Both γ-thrombin and human fibrinogen were purchased from Enzyme Research Laboratories, South Bend, Ind. At the conclusion of the incubation, the entire platelet sample was centrifuged at 10,900 xg (Model E, Beckman Instruments, Palo Alto, Calif.) over a 0.135 mM formaldehyde, 5 mM EDTA solution (1 part of formaldehyde-EDTA to 4 parts of platelet suspension) and stored on ice until an aliquot of the supernatant was assayed for 5-[^14 C]hydroxytryptamine secretion. Percent secretion was determined by the ratio of the loss of 5-[^14 C]hydroxytryptamine in the supernatant of the agonist-treated specimen to the loss of 5-[^14 C]hydroxytryptamine in the supernatant of the platelet lysate after the value of the control supernatant (i.e., the level of 5-[^14 C]hydroxytryptamine in a unstimulated sample) was subtracted from both.

[3] = observations in rabbits after bolus injection; format: in vivo, New Zealand white rabbits; settings: single iv bolus
Method: (§1) Clearance studies have been performed in New Zealand white rabbits with BK analog SEQ ID NO:19. White rabbits weighing between 2.0 and 2.5 kg were premedicated according to the method of Michelson et al., J. Mol. Cell Cardiol. 20, 547 (1988) with 10 mg/kg 1 M xylazine and 10 mg/kg 1 M ketamine. After tracheostomy, intubation, and positive pressure ventilation done with room air (Harvard instruments), stage III surgical anesthesia was maintained with 20 mg/ml of intravenous pentobarbital. A carotid artery and a jugular vein were then exposed. A catheter was inserted into the exposed carotid artery for withdrawal of blood samples and monitoring the animal's blood pressure (Gould, Inc., Cardiovascular Products, Oxnard, Calif.). In a similar manner, a catheter was inserted into the exposed jugular vein for administering the anesthetic and BK analog SEQ ID NO:19.
(§2) For the clearance study, a single bolus of BK analog SEQ ID NO:19 was injected. The amount of BK analog SEQ ID NO:19 injected was calculated from the weight of the animal such that the blood volume was 1 mM with peptide. For example: for a 2.5 kg rabbit, 7% of its weight gives an estimated blood volume of 175 ml. Accordingly, 89 mg of BK analog was injected to make the 175 ml plasma sample 1 mM. Depending upon the size of the animal, 75 to 90 mg peptide was injected. Blood samples were collected at 2, 4, 6, 8, 10, 20, 30, 40, 60, 90, and 120 minute intervals after infusion into a 0.013 M sodium citrate anticoagulant solution. Plasma was prepared from each of the blood samples collected over time by centrifugation of the blood samples at 10,00 xg for two minutes. Aliquots of the plasmas were assayed for the presence of the BK analog SEQ ID NO:19 antigen by the ELISA technique using a MARKIT-M [1-5] BK assay from Dainippon Pharmaceutical Co., Ltd., Osaka, Japan.

[4] = target: α-thrombin (Homo sapiens, UniProt P00734); experiment: α-thrombin cleavage of thrombin receptor peptide NAT12 (HPLC); format: biochemical; settings: peptide 1 mM, 8 nM α-thrombin
Method: A further study was performed to determine whether BK analogs prevent α-thrombin from cleaving the thrombin receptor reported by Vu et al., Cell 64, 1057 (1991). A peptide, NAT12 (SEQ ID NO:2), which spans amino acids […] of the α-thrombin cleavage site on the thrombin receptor, was used to determine whether the BK analogs described herein blocked α-thrombin cleavage of the cloned receptor.
The cleavage study was performed according to the method of Molino et al., J. Biol. Chem. 270,11168(1995),inwhichNAT12(SEQ ID NO:2) was dissolved in a solution of 0.01 M NaH2 PO4 and 0.15 M NaCl, pH 7.4. […] Following incubation, each mixture was separated by applying the mixture to a Vyadec C-18 HPLC column in 0.1% trifluoroacetic acid and eluting the mixture with a gradient from 0% to 100% of 80% MeCN and 0.1% trifluoroacetic acid. The size of the separated products were confirmed by mass spectrometry.

[5] = rabbit clearance study (plasma antigen by ELISA); format: in vivo, New Zealand white rabbits
Method: as §1, §2

[6] = tested on: washed platelets; experiment: 125I-α-thrombin binding to platelets; set-up: species or system human; settings: peptide 1 mM
Method: Gel filtered platelets were placed into polypropylene tubes and diluted with Hepes-Tyrode's buffer, containing 2 mM CaCl2 and 50 μM ZnCl2 and additions, to a final concentration of 2×10^8 platelets/ml. The reaction was started by the addition of 1 nM ^125 I-α-thrombin, which was prepared by using the iodogen technique as reported by Meloni et al., J. Biol. Chem. 266, 6786 (1991). Incubations were performed at 37° C. for specified times with various additions. After incubation, 50 μl aliquots were removed in triplicate for each experimental point and placed in polypropylene microcentrifuge tubes with an extended tip containing 200 μl of an oil mixture which consisted of 1 part Apiezon A oil to 9 parts of n-butylphthalate (Gustafson et al., J. Clin. Invest. 78, 810 (1986)), and centrifuged at room temperature for 2 min at 10,900× g in a microcentrifuge. (Model E, Beckman Instruments, Palo Alto, Calif.) The supernatant was removed and the tips amputated for placement in the gamma counter. The radioactivity present in the cell pellet was determined with an LKB Rack Gamma Counter (LKB Instruments, Inc., Gaithersburg, Md.). Nonspecific binding was measured in the presence of a 100-fold molar excess of α-thrombin.

[7] = aggregation and secretion not distinguished, read-out: IC50, inhibition of α-thrombin-induced platelet activation
[8] = washed platelets, α-thrombin 1 nM, read-out: IC50 AGGREGATION (inhibition of α-thrombin-induced platelet aggregation)
[9] = washed platelets, α-thrombin 1 nM, read-out: IC50 SECRETION (inhibition of α-thrombin-induced platelet secretion)

CC[C@H](C)[C@H](NC(=O)[C@H](CCCNC(=N)N)NC(=O)[C@H](CO)NC(=O)[C@H](CO)NC(=O)[C@H](CCCNC(=N)N)NC(=O)[C@H](Cc1ccccc1)NC(=O)[C@@H]1CCCN1C(=O)[C@H](CO)NC(=O)[C@H](Cc1ccccc1)NC(=O)CNC(=O)[C@@H]1CCCN1C(=O)[C@@H]1CCCN1C(=O)[C@H](CCCNC(=N)N)NC(=O)[C@H](CCCCN)NC(=O)[C@@H](N)CCSC)C(=O)NCC(=O)O [SEQ ID NO:14]
IC50 [1]: 300 µM

Arg-Pro-Pro-Gly (RPPG) [SEQ ID NO:20]
inhibition of aggregation [2]: 95% | inhibition of secretion [2]: 25%

RPPGF [SEQ ID NO:19, Arg-Pro-Pro-Gly-Phe]
bleeding at the surgical sites of cutdowns and intubations [3]: no abnormal bleeding | blood pressure [3]: remained stable | platelet count [3]: remained stable | pulse [3]: remained stable | unfavorable effects following the bolus injection [3]: No unfavorable effects were observed | cleavage product peak 2, share of non-treated NAT12 peak area [4]: 26% | cleavage product peak 3, share of non-treated NAT12 peak area [4]: 31% | reduction of NAT12 peak 1 area after α-thrombin ([4]; one hour 37° C.): 57% | effect of ligating renal arteries on half-life ([5]; Rabbit 2, renal arteries ligated): did not lengthen the half-life | half-life of antigen clearance in plasma ([5]; single iv bolus): 6.6 min | peak plasma concentration after infusion ([5]; single iv bolus, two minutes after infusion): 0.120 mM | peak plasma concentration after infusion ([5]; single iv bolus, two of three rabbits, ELISA): 60 µg/mL

SEQ ID NO:5: scrambled peptide having the amino acids of SEQ ID NO:19 (FPRPG) [reference compound]
inhibition of aggregation [2]: did not inhibit | inhibition of secretion [2]: did not inhibit

SEQ ID NO:6: scrambled peptide having the same amino acid count as SEQ ID NO: 14 (FSGPKRSPIMGRPSFR) [reference compound]
inhibition of aggregation [2]: 26% | inhibition of secretion [2]: 8%

SEQ ID NO:7: BK analog of the mid or carboxy terminal regions of BK (FSPFRSS)
IC50 [2, 7]: ≥ 2000 µM | IC50 [2, 8]: 2000 µM | IC50 [2, 9]: > 2000 µM

SEQ ID NO:8: BK analog that encompasses all or a portion of the native BK sequence (GFSPFRSSRIG)
IC50 [2, 8]: 850 µM | IC50 [2, 9]: > 2000 µM | inhibition of 125I-α-thrombin binding to platelets [6]: did not block

SEQ ID NO:9: scrambled peptide having the amino acids of SEQ ID NO:19 (GPFPR) [reference compound]
inhibition of aggregation [2]: did not inhibit | inhibition of secretion [2]: did not inhibit

SEQ ID NO:16: BK analog of the mid or carboxy terminal regions of BK (PPGFSP)
IC50 [2, 7]: ≥ 2000 µM | IC50 [2, 8]: > 3000 µM | IC50 [2, 9]: > 2000 µM
